{
  "source": "patent US11352368B2",
  "about": "“Salt of fused ring pyrimidine compound, crystal form thereof and preparation method therefor and use thereof” (GUANGZHOU MAXINOVEL PHARMACEUTICALS CO., LTD., priority 2018, dated 2022)",
  "assay_type_in_all_cases": "physicochemical",
  "key": {"[1]": {"test": "Solubility test of the salts in pure water (Example 6)", "settings": "for saturated solubility: room temperature, balancing about 20 hours, HPLC; for solubility in pure water compared with the free base: versus free base of the fused ring pyrimidine compound", "description": "2.0 mg of sample was precisely weighed into a liquid phase vial, 1.0 mL of purified water was added, the vial was subjected to ultrasonic treatment for about 30 seconds to disperse the samples evenly, then the vial was placed on a Labquaker rotator, and slowly rotated at room temperature for balancing. After balancing for about 20 hours, each vial was removed, and the solution was filtered with 0.45 μm nylon filter membrane. The filtrate was diluted by DMSO or not diluted and then detected by HPLC. At the same time, two parts of fused ring pyrimidine compounds were weighed and dissolved in DMSO to make standard solutions with concentration of 250 μg/mL and 500 μg/mL, respectively. The standard solutions were subjected to the HPLC detection. The sample concentration vs the peak area of HPLC principal component was used for make a standard curve, and the solubility of each sample in pure water was calculated by a external standard method."}, "[2]": {"test": "Dynamic vapor sorption analysis (DVS)", "settings": "for XRPD of samples after DVS test: XRPD diffraction peaks before and after DVS test", "description": "(§1) 10 mg of the crystal form A of the fumarate of fused ring pyrimidine compound as shown in formula 2 was weighed, and dried for 60 min under the condition of a temperature of 25° C. and a humidity of 0% RH, and then the humidity absorption characteristic of the sample was tested when the humidity changed from 0% RH to 95% RH, and the dehumidification characteristic of the sample was tested when the humidity changed from 95% RH to 0% RH. Each step length for the humidity changes was 5% RH, the balance standard was that the weight change rate was less than 0.01%/min within 5 min, and the longest balance time was 2 hours.\nas §1, with “form B” for “form A”, “the adipate” for “the fumarate”, “formula 3” for “formula 2”"}, "[3]": {"test": "Solubility test of crystal form A and crystal form B in a medium (Example 12)", "settings": "thermodynamic from solid, read-out: Solubility (calculated by free base of the fused ring pyrimidine compound)", "from_the_text": "Example 12 Solubility Test of the Crystal Form A of the Fumarate of Fused Ring Pyrimidine Compound as Shown in Formula 2 and the Crystal Form B of the Adipate of Fused Ring Pyrimidine Compound as Shown in Formula 3 in a Medium"}, "[4]": {"settings": "listed as The fumarate of fused ring pyrimidine compound as shown in formula 2"}, "[5]": {"settings": "listed as The phosphate of fused ring pyrimidine compound as shown in formula 4"}, "[6]": {"settings": "listed as The tartrate of fused ring pyrimidine compound as shown in formula 5"}},
  "note": "Like-named read-outs stand apart in the source and are kept apart here.",
  "data": [
    {"smiles": "COc1cc(F)ccc1-c1c(C)sc2cnc(Nc3cnn(C4CCNCC4)c3)nc12", "note": "[Example 1]", "values": [
      {"measurement": "saturated solubility", "setting": "[1]", "value": 170, "unit": "µg/mL"},
      {"measurement": "solubility in pure water compared with the free base", "setting": "[1]", "value": "significantly improved"},
      {"measurement": "DVS: Moisture-absorption weight gain at 85% RH", "setting": "[2]; [4]", "value": "85% RH: 0.324%"},
      {"measurement": "DVS: Moisture-absorption weight gain at 95% RH", "setting": "[2]; [4]", "value": "95% RH: 0.404%"},
      {"measurement": "XRPD of samples after DVS test", "setting": "[2]; [4]", "value": "consistent"},
      {"measurement": "DVS: Weight loss in drying stage", "setting": "[2]; [4]", "value": "drying stage: 0.117%"}
    ]},
    {"smiles": "COc1cc(F)ccc1-c1c(C)sc2cnc(Nc3cnn(C4CCNCC4)c3)nc12", "note": "[Example 3]", "values": [
      {"measurement": "saturated solubility", "setting": "[1]", "value": 675, "unit": "µg/mL"},
      {"measurement": "solubility in pure water compared with the free base", "setting": "[1]", "value": "significantly improved"},
      {"measurement": "DVS: Moisture-absorption weight gain at 85% RH", "setting": "[2]; [5]", "value": "85% RH: 6.95%"},
      {"measurement": "DVS: Moisture-absorption weight gain at 95% RH", "setting": "[2]; [5]", "value": "95% RH: 12.15%"},
      {"measurement": "XRPD of samples after DVS test", "setting": "[2]; [5]", "value": "consistent"},
      {"measurement": "DVS: Weight loss in drying stage", "setting": "[2]; [5]", "value": "drying stage: 0.752%"}
    ]},
    {"smiles": "COc1cc(F)ccc1-c1c(C)sc2cnc(Nc3cnn(C4CCNCC4)c3)nc12", "values": [
      {"measurement": "solubility", "setting": "[3]; 50 mM phosphate buffer, pH 6, aqueous buffer, medium pH 6 (50 mM phosphate buffer)", "value": 36, "unit": "µg/mL"},
      {"measurement": "solubility", "setting": "[3]; FeSSIF, medium intestinal fluid in simulated fed state (FeSSIF)", "value": 1910, "unit": "µg/mL"}
    ]},
    {"smiles": "COc1cc(F)ccc1-c1c(C)sc2cnc(Nc3cnn(C4CCNCC4)c3)nc12", "note": "[Example 4]", "values": [
      {"measurement": "saturated solubility", "setting": "[1]", "value": 146, "unit": "µg/mL"},
      {"measurement": "solubility in pure water compared with the free base", "setting": "[1]", "value": "significantly improved"},
      {"measurement": "DVS: Moisture-absorption weight gain at 85% RH", "setting": "[2]; [6]", "value": "85% RH: 8.390%"},
      {"measurement": "DVS: Moisture-absorption weight gain at 95% RH", "setting": "[2]; [6]", "value": "95% RH: 8.659%"},
      {"measurement": "DVS: Weight loss in drying stage", "setting": "[2]; [6]", "value": "drying stage: 5.88%"}
    ]},
    {"smiles": "COc1cc(F)ccc1-c1c(C)sc2cnc(Nc3cnn(C4CCNCC4)c3)nc12", "note": "[Example 2]", "values": [
      {"measurement": "saturated solubility", "setting": "[1]", "value": 520, "unit": "µg/mL"},
      {"measurement": "solubility in pure water compared with the free base", "setting": "[1]", "value": "significantly improved"}
    ]}
  ]
}
